Twelve compounds from publication PMC6300282, “Sulphamethazine derivatives as immunomodulating agents: New therapeutic strategies for inflammatory diseases” (PLoS ONE, 2018) can be followed below.

Data set [1] deals with zymosan activated whole blood phagocytes. The data set can be described thus: Oxidative burst assay (luminol-enhanced chemiluminescence), whole blood. In kind it is cell-based. To be noted: human whole blood, serum opsonized zymosan, three doses 1, 10, 100 μg/mL, mean ± SD of three, NA = Not active, read-out: Oxidative Burst Inhibition (IC50) WB. As for the experimental part:
Luminol-enhanced chemiluminescence assay was performed, as described by Helfandet al., 1982 [17], with some modifications. Briefly 25 μL of diluted whole blood in HBSS^++ (Hanks Balanced Salt Solution, containing calcium chloride and magnesium chloride) [Sigma, St. Louis, USA] was incubated with 25 μL of three different concentrations of compounds (1, 10, and 100 μg/mL), each in triplicate. Control wells received HBSS^++ and cells, but no compounds. Test was performed in white half area 96-well plates [Costar, NY, USA], which was incubated at 37 °C for 15 minutes in the thermostat chamber of luminometer [Labsystems, Helsinki, Finland]. After incubation, 25 μL of serum opsonized zymosan (SOZ) [Fluka, Buchs, Switzerland] and 25 μL of intracellular reactive oxygen species detecting probe, luminol [Research Organics, Cleveland, OH, USA] were added into each well, except blank wells (containing only HBSS^++). The level of the ROS was recorded in luminometer in term of relative light units (RLU).

Data set [2] deals with TNF-α production from THP-1 human monocytic leukemia cell line. Put plainly: TNF-α production (ELISA), LPS stimulated THP-1 cells. In kind it is cell-based. To be noted: Homo sapiens; PMA-differentiated THP-1 cells, 50 ng/mL LPS, 4 hours; three doses 1, 10, 100 μg/mL; mean ± SD of three; read-out: TNF-α Inhibition (IC50). An excerpt:
RPMI-1640 (R8758, Sigma Aldrich, St. Louis, USA); L-glutamine (25030081, Gibco, California, USA); D-glucose (G8270, Sigma Aldrich, St. Louis, USA); 2-mercaptoethanol (190242, MP Biomedicals, lllkirch, France); sodium pyruvate (11360–070, Gibco, California, USA); FBS (A11-104, PAA Laboratories, Pasching, Austria); HEPES (H3375, Sigma Aldrich, St. Louis, USA); PMA (151864, MP Biomedicals, lllkirch, France); lipopolysaccharide B of E. coli 0111:B4 (LPS) (3922–25, DIFCO Laboratories, USA); 24-well tissue culture plates (CLS3524, Corning, Dublin, USA); Flat bottom 96-well tissue culture plates (CLS3300, Corning, New York, USA). BSA (151429, MP Biomedicals, lllkirch, France); PBS tablets (41620016–4, Bioworld, Dublin, Ireland); Tween 20 (822184, Merck, Damstadt, Germany); Human TNF-α DuoSet ELISA Kit (DY210, R&D Systems, Minneapolis, USA); Human IL-1β DuoSet ELISA Kit (DY201, R&D Systems, Minneapolis, USA); and Human IL-2 DuoSet ELISA Kit (DY202, R&D Systems, Minneapolis, USA); ELISA plate sealers (DY992, R&D Systems, Minneapolis, USA); Clear flat bottom 96-well microplates (DY990, R&D Systems, Minneapolis, USA). Human monocytic leukemia cells THP-1 were obtained from (European Collection of Cell Cultures, UK). The cells were maintained in RPMI-1640 containing 5.5 mmol/L glucose (BioM Laboratories, Chemical Division, Malaysia), 50 μmol/L mercaptoethanol (Merck Damstadt, Germany), 10% FBS (fetal bovine serum), 2 mmol/L; L-glutamine (PAA Laboratories, GmbH, Pasching, Austria). Cells were grown in 75 cc flasks, harvested and 2.5×10^5 cells/mL was then plated in 24-well tissue culture plates. 20 ng/mL of phorbol-12-myristate-13-acetate (PMA), (SERVA, Heidelberg, Germany) was added followed by incubation for 24 hours at 37 °C in 5% CO2to convert them into macrophage like cell. Cells were then stimulated with E. coli lipopolysacchride B, (DIFCO Laboratories, michigon, USA) at a final concentration of 50 ng/mL and treated with compounds at three different concentration (1, 10 and 100 μg/mL) and then incubated for 4 hours at 37 °C in 5% CO2. The supernatants collected were analyzed for the level of TNF -α using the human TNF-α Duo Set ELISA (R&D Systems, Minneapolis, USA), and according to manufacturer’s instructions.

A further data set can be described thus: MTT cytotoxicity assay. The data set is classed as cell-based, mouse. To be noted: mouse; for IC50: MTT, 48 hours, read-out: Cytotoxicity NIH-3T3 cell line (IC50). As for the experimental part: The cytotoxicity was recorded as concentration causing 50% growth inhibition (IC50).
For data set [3], the system named is Bacillus subtilis (ATCC 6633). The data set can be described thus: Microplate Alamar Blue Assay, Bacillus subtilis. The data set is classed as cell-based. To be noted: ATCC6633, 200 μg/mL, NI = No inhibition, read-out: Percentage (%) Inhibition, Bacillus subtilis.
For data set [4], the system named is Escherichia coli (ATCC 12022). Put plainly: Microplate Alamar Blue Assay, Escherichia coli. The data set is classed as cell-based. To be noted: ATCC12022, 200 μg/mL, NI = No inhibition, read-out: Percentage (%) Inhibition, Escherichia coli. On the technique in general: Resazurin is reduced to fluorescent resorufin, in cell work by metabolically active cells.
The test system of data set [5] is Salmonella typhi (ATCC 14028). The data set can be described thus: Microplate Alamar Blue Assay, Salmonella typhi. In kind it is cell-based. To be noted: Salmonella enterica; 200 μg/mL; NI = No inhibition; read-out: Percentage (%) Inhibition, Slamonella typhi.

Values after ≈ are worked out from the molar mass of the structure shown.

On to `Cc1cc(C)nc(NS(=O)(=O)c2ccc(NC(=O)c3cc(F)cc(F)c3)cc2)n1` [Compound 7, N-(4-(N-(4,6-dimethylpyrimidin-2-yl)sulfamoyl)phenyl)-3,5-difluorobenzamide], for which the half-maximal inhibitory concentration (IC50) (in general, the concentration at which inhibition is half-maximal) in data set [1] was 5.8 ± 0.6 µg/mL; in data set [2], 38.9 ± 0.7 µg/mL (≈ 93 µM); in the data set “MTT cytotoxicity assay” it was > 30 µM. The inhibition (commonly the share of the control response that was lost under treatment) at 200 µg/mL in data set [3] is < 0%; in data set [4], < 0%; in data set [5], 13.1%.
Consider `Cc1cc(C)nc(NS(=O)(=O)c2ccc(NC(=O)c3ccc(C(F)(F)F)c(F)c3)cc2)n1` [Compound 9, N-(4-(N-(4,6-dimethylpyrimidin-2-yl)sulfamoyl)phenyl)-3-fluoro-4-(trifluoromethyl)benzamide], for which the 50% inhibitory concentration (IC50) in data set [1] was 5.7 ± 0.2 µg/mL; in data set [2], 2.1 ± 0.2 µg/mL (≈ 4.48 µM); in “MTT cytotoxicity assay” it was > 30 µM. In addition, the inhibition at 200 µg/mL was < 0% in data set [3], < 0% in data set [4] and 0.94% in data set [5].
Take `Cc1cc(C)nc(NS(=O)(=O)c2ccc(NC(=O)C(C)Cl)cc2)n1` (stereo not drawn) [Compound 11, 2-Chloro-N-(4-(N-(4,6-dimethylpyrimidin-2-yl)sulfamoyl)phenyl)propanamide]: the half-inhibitory concentration (IC50) in data set [1] was 34.6 ± 1.2 µg/mL; in data set [2], > 100 µg/mL; in the data set “MTT cytotoxicity assay”, > 30 µM. Further, the inhibition at 200 µg/mL in data set [3] turned out to be 35.1%; in data set [4] it was 3.93%; in data set [5], 29.6%.
Take `Cc1cc(C)nc(NS(=O)(=O)c2ccc(NC(=O)c3ccc(CCl)cc3)cc2)n1` [Compound 5, 4-(Chloromethyl)-N-(4-(N-(4,6-dimethylpyrimidin-2-yl)sulfamoyl)phenyl)benzamide]: the results for the IC50 (in data set [1]; in data set [2]; in “MTT cytotoxicity assay”) were 20.5 ± 2.2 µg/mL, < 1 µg/mL and > 30 µM, respectively. The inhibition at 200 µg/mL in data set [3], in data set [4] and in data set [5] was < 0% each time.
Turning to `Cc1cc(C)nc(NS(=O)(=O)c2ccc(NC(=O)c3cc(C(F)(F)F)cc(C(F)(F)F)c3)cc2)n1` [Compound 6, N-(4-(N-(4,6-dimethylpyrimidin-2-yl)sulfamoyl)phenyl)-3,5-bis(trifluoromethyl)benzamide], the results for the IC50 (in data set [1]; in data set [2]; in the data set “MTT cytotoxicity assay”) were 5.7 ± 0.8 µg/mL, < 1 µg/mL and > 30 µM, respectively. Further, the inhibition at 200 µg/mL in data set [3], in data set [4] and in data set [5] was < 0% throughout.
Turning to `Cc1cc(C)nc(NS(=O)(=O)c2ccc(N)cc2)n1` [compound 1, Sulfamethazine, reference compound], the concentration for half-maximal inhibition (IC50) in data set [1] is 8.9 ± 1.3 µg/mL; in data set [2], > 100 µg/mL. For the same compound, in “MTT cytotoxicity assay”, the concentration for half-maximal inhibition (IC50) at 48 h was > 30 µM. Further, the inhibition at 200 µg/mL in data set [3], in data set [4] and in data set [5] was < 0% in each case.
For `Cc1cc(C)nc(NS(=O)(=O)c2ccc(NC(=O)C(Br)CBr)cc2)n1` (stereo not drawn) [Compound 3, 2,3-Dibromo-N-(4-(N-(4,6-dimethylpyrimidin-2-yl)sulfamoyl)phenyl)propanamide], the values for the IC50 (in data set [1]; in data set [2]; in the data set “MTT cytotoxicity assay”) were 6.5 ± 1.3 µg/mL, < 1 µg/mL and > 30 µM, respectively. Further, the inhibition at 200 µg/mL in data set [3], in data set [4] and in data set [5] was < 0% throughout.
With `Cc1cc(C)nc(NS(=O)(=O)c2ccc(NC(=O)c3cccc([N+](=O)[O-])c3)cc2)n1` [Compound 13, N-(4-(N-(4,6-dimethylpyrimidin-2-yl)sulfamoyl)phenyl)-3-nitrobenzamide], the results for the 50% inhibitory concentration (IC50) (in data set [1]; in data set [2]; in “MTT cytotoxicity assay”) were 9.2 ± 0.6 µg/mL, 19.5 ± 1 µg/mL (≈ 45.6 µM) and > 30 µM, respectively. Further, the inhibition at 200 µg/mL in data set [3], in data set [4] and in data set [5] was < 0% each time.
In the case of `Cc1cc(C)nc(NS(=O)(=O)c2ccc(NC(=O)c3cc(F)cc(C(F)(F)F)c3)cc2)n1` [Compound 8, N-(4-(N-(4,6-dimethylpyrimidin-2-yl)sulfamoyl)phenyl)-3-fluoro-5-(trifluoromethyl)benzamide], the IC50 in data set [1] is 4.2 ± 0.2 µg/mL; in data set [2], 9.5 ± 0.4 µg/mL (≈ 20.3 µM); in the data set “MTT cytotoxicity assay”, > 30 µM. For the same compound, the inhibition at 200 µg/mL in data set [3] was < 0%; in data set [4], < 0%; in data set [5], 29.4%.
As for `Cc1cc(C)nc(NS(=O)(=O)c2ccc(NC(=O)c3cccc(CCl)c3)cc2)n1` [Compound 4, 3-(Chloromethyl)-N-(4-(N-(4,6-dimethylpyrimidin-2-yl)sulfamoyl)phenyl)benzamide], the IC50 in data set [1] is 7.3 ± 0.4 µg/mL; in data set [2], < 1 µg/mL; in the data set “MTT cytotoxicity assay”, > 30 µM. Also, the inhibition at 200 µg/mL in data set [3], in data set [4] and in data set [5] was < 0% in each case.
Take `Cc1cc(C)nc(NS(=O)(=O)c2ccc(NC(=O)c3ccc(F)cc3)cc2)n1` [Compound 12, N-(4-(N-(4,6-dimethylpyrimidin-2-yl)sulfamoyl)phenyl)-4-fluorobenzamide]: the IC50 in data set [1] is 10.6 ± 0.5 µg/mL; in data set [2], 9.9 ± 0.2 µg/mL (≈ 24.7 µM); in “MTT cytotoxicity assay”, > 30 µM. Also, the inhibition at 200 µg/mL was < 0% in data set [3], < 0% in data set [4] and 19% in data set [5].
For the compound `Cc1cc(C)nc(NS(=O)(=O)c2ccc(NC(=O)c3ccc(F)c(C(F)(F)F)c3)cc2)n1` [Compound 10, N-(4-(N-(4,6-dimethylpyrimidin-2-yl)sulfamoyl)phenyl)-4-fluoro-3-(trifluoromethyl)benzamide], the concentration for half-maximal inhibition (IC50) in data set [1] was 10.6 ± 0.5 µg/mL; in data set [2] it was 34.5 ± 4.1 µg/mL (≈ 73.6 µM); in the data set “MTT cytotoxicity assay”, > 30 µM. The inhibition at 200 µg/mL in data set [3], in data set [4] and in data set [5] was < 0% in each case.
